Values joined by “and” are separate entries in the source; they are usually repeats but may differ in a detail not shown here. Equal entries are not always repeated. Inconclusive results and toxic doses are left out.
Tested on: L1210 leukemia ip in BDF1 mice, survival T/C
Assay: NCI In Vivo Anticancer Drug Screen. Data for tumor model L1210 Leukemia (intraperitoneal) in B6D2F1 (BDF1) mice
Settings: endpoint: mean survival time, higher = longer survival
In short: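 In this screen, tumor-bearing mice given compound are compared to those given vehicle, and their survival values are reported as a treated-to-control quotient.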

[1] = dose: 25.0 mg/kg/injection, schedule: Q01DX009 (ip), vehicle: Klucel (hydroxypropylcellulose) (HPC)
[2] = dose: 50.0 mg/kg/injection, schedule: Q01DX009 (ip), vehicle: Klucel (hydroxypropylcellulose) (HPC)
[3] = dose: 100.0 mg/kg/injection, schedule: Q01DX009 (ip), vehicle: Klucel (hydroxypropylcellulose) (HPC)
[4] = dose: 100.0 mg/kg/injection, schedule: Q04DX003 (ip), vehicle: saline
[5] = dose: 200.0 mg/kg/injection, schedule: Q04DX003 (ip), vehicle: saline
[6] = dose: 100.0 mg/kg/injection, schedule: Q04DX003 (ip), vehicle: Klucel (hydroxypropylcellulose) (HPC)
[7] = dose: 200.0 mg/kg/injection, schedule: Q04DX003 (ip), vehicle: Klucel (hydroxypropylcellulose) (HPC)
[8] = dose: 100.0 mg/kg/injection, schedule: Q04DX002 (ip), vehicle: Klucel (hydroxypropylcellulose) (HPC)
[9] = dose: 200.0 mg/kg/injection, schedule: Q04DX002 (ip), vehicle: Klucel (hydroxypropylcellulose) (HPC)
[10] = dose: 200.0 mg/kg/injection, schedule: Q01DX009 (ip), vehicle: Klucel (hydroxypropylcellulose) (HPC)
[11] = dose: 100.0 mg/kg/injection, schedule: Q01DX001 (ip), vehicle: saline
[12] = dose: 200.0 mg/kg/injection, schedule: Q01DX001 (ip), vehicle: saline
[13] = dose: 400.0 mg/kg/injection, schedule: Q01DX001 (ip), vehicle: saline
[14] = dose: 100.0 mg/kg/injection, schedule: Q01DX009 (ip), vehicle: saline with Tween-80
[15] = dose: 200.0 mg/kg/injection, schedule: Q01DX009 (ip), vehicle: saline with Tween-80

CC(=O)C(N=Nc1ccccc1)C(C)=O
T/C [1]: 94 % of control
T/C [2]: 92 % of control
T/C [3]: 97 % of control and 102 % of control

CN(C)CCSC(=O)N1c2ccccc2C(C)(C)c2ccccc21
T/C (dose: 12.5 mg/kg/injection, schedule: Q01DX009 (ip), vehicle: saline): 94 % of control
T/C (dose: 25.0 mg/kg/injection, schedule: Q01DX009 (ip), vehicle: saline): 100 % of control
T/C (dose: 25.0 mg/kg/injection, schedule: Q04DX003 (ip), vehicle: saline): 91 % of control
T/C (dose: 50.0 mg/kg/injection, schedule: Q01DX009 (ip), vehicle: saline): 111 % of control
T/C (dose: 50.0 mg/kg/injection, schedule: Q04DX003 (ip), vehicle: saline): 102 % of control
T/C [4]: 96 % of control
T/C [5]: 90 % of control

OC1(C#[C][Hg][C]#CC2(O)CCCCC2)CCCCC1
T/C [6]: 98 % of control
T/C [7]: 100 % of control

O=[N+]([O-])c1cc(S(=O)(=O)c2ccc(O)c([N+](=O)[O-])c2)ccc1O
T/C (dose: 25.0 mg/kg/injection, schedule: Q04DX002 (ip), vehicle: saline): 98 % of control
T/C (dose: 50.0 mg/kg/injection, schedule: Q04DX002 (ip), vehicle: saline): 98 % of control
T/C (dose: 100.0 mg/kg/injection, schedule: Q04DX002 (ip), vehicle: saline): 98 % of control and 104 % of control

Cc1ccc(S(=O)(=O)NC(=O)N(CCCl)N=O)cc1
T/C (dose: 10.0 mg/kg/injection, schedule: Q01DX001 (ip), vehicle: other): 113 % of control
T/C (dose: 40.0 mg/kg/injection, schedule: Q01DX001 (ip), vehicle: other): 216 % of control
T/C (dose: 62.0 mg/kg/injection, schedule: Q01DX001 (ip), vehicle: other): 220 % of control
T/C (dose: 93.0 mg/kg/injection, schedule: Q01DX001 (ip), vehicle: other): 307 % of control
T/C (dose: 187.0 mg/kg/injection, schedule: Q01DX001 (ip), vehicle: other): 168 % of control

CS(=O)CC(=O)c1ccc(C(=O)O)cc1 (stereo unspecified)
T/C (dose: 100.0 mg/kg/injection, schedule: Q04DX003 (ip), vehicle: other): 107 % of control
T/C (dose: 200.0 mg/kg/injection, schedule: Q04DX003 (ip), vehicle: other): 98 % of control
T/C (dose: 400.0 mg/kg/injection, schedule: Q04DX003 (ip), vehicle: other): 101 % of control

CC1=CC(=O)c2[nH]ncc2C1=O
T/C (dose: 10.0 mg/kg/injection, schedule: Q01DX001 (ip), vehicle: water): 93 % of control

c1ccc(OCc2ccc(COc3ccccc3)cc2)cc1
T/C [1]: 98 % of control
T/C (dose: 25.0 mg/kg/injection, schedule: Q04DX003 (ip), vehicle: Klucel (hydroxypropylcellulose) (HPC)): 97 % of control
T/C [2]: 92 % of control
T/C (dose: 50.0 mg/kg/injection, schedule: Q04DX003 (ip), vehicle: Klucel (hydroxypropylcellulose) (HPC)): 94 % of control
T/C [3]: 95 % of control
T/C [6]: 92 % of control

C=Cc1c(C)c(O)cc2c1-c1ccc(O)c(C)c1CC2
T/C (dose: 6.25 mg/kg/injection, schedule: Q01DX009 (ip), vehicle: saline with Tween-80): 102 % of control
T/C (dose: 12.5 mg/kg/injection, schedule: Q01DX009 (ip), vehicle: saline with Tween-80): 102 % of control
T/C (dose: 25.0 mg/kg/injection, schedule: Q01DX009 (ip), vehicle: saline with Tween-80): 98 % of control
T/C (dose: 50.0 mg/kg/injection, schedule: Q01DX009 (ip), vehicle: saline with Tween-80): 91 % of control

O=C(CCCN1CCC(O)CC1)c1ccc(N2CC=C(c3ccccc3)CC2)cc1
T/C [8]: 104 % of control
T/C [9]: 100 % of control

CCOC(=O)C1C2CCCC(=O)C21 (stereo unspecified)
T/C [8]: 96 % of control
T/C [9]: 104 % of control
T/C (dose: 400.0 mg/kg/injection, schedule: Q04DX002 (ip), vehicle: Klucel (hydroxypropylcellulose) (HPC)): 100 % of control

C=CCOc1ccn(C)c(=O)n1
T/C (dose: 100.0 mg/kg/injection, schedule: Q01DX009 (ip), vehicle: saline): 98 % of control
T/C [4]: 108 % of control
T/C (dose: 200.0 mg/kg/injection, schedule: Q01DX009 (ip), vehicle: saline): 101 % of control
T/C [5]: 97 % of control
T/C (dose: 400.0 mg/kg/injection, schedule: Q01DX009 (ip), vehicle: saline): 98 % of control
T/C (dose: 400.0 mg/kg/injection, schedule: Q04DX003 (ip), vehicle: saline): 111 % of control

CC1(C)C=CC(=NO)C=C1
T/C [3]: 96 % of control
T/C [10]: 97 % of control

Cc1ccc(C)c(NC(=O)Nc2ccccc2F)c1
T/C (dose: 100.0 mg/kg/injection, schedule: Q01DX009 (ip), vehicle: carboxymethylcellulose (CMC)): 89 % of control
T/C (dose: 200.0 mg/kg/injection, schedule: Q01DX009 (ip), vehicle: carboxymethylcellulose (CMC)): 86 % of control
T/C (dose: 400.0 mg/kg/injection, schedule: Q01DX009 (ip), vehicle: carboxymethylcellulose (CMC)): 87 % of control

CN=C(C)c1ccc(N(C)C)cc1
T/C [6]: 101 % of control
T/C [7]: 92 % of control
T/C (dose: 400.0 mg/kg/injection, schedule: Q04DX003 (ip), vehicle: Klucel (hydroxypropylcellulose) (HPC)): 97 % of control

O=[N+]([O-])/C(N=Nc1ccc(Br)cc1)=N\Nc1ccc(Br)cc1
T/C (dose: 75.0 mg/kg/injection, schedule: Q01DX001 (ip), vehicle: acetone): 87 % of control
T/C (dose: 150.0 mg/kg/injection, schedule: Q01DX001 (ip), vehicle: acetone): 89 % of control

Cc1ccc(S(=O)(=O)[N-][n+]2ccccc2)cc1
T/C [3]: 93 % of control
T/C [10]: 93 % of control

Cc1ccccc1C(c1ccccc1)N(C)C (stereo unspecified)
T/C (dose: 50.0 mg/kg/injection, schedule: Q01DX001 (ip), vehicle: saline): 100 % of control
T/C [11]: 96 % of control
T/C [12]: 96 % of control
T/C [13]: 92 % of control

OCC1OC(n2cnc3c(NCCCCNc4ncnc5c4ncn5C4OC(CO)C(O)C4O)ncnc32)C(O)C1O (stereo unspecified)
T/C (dose: 100.0 mg/kg/injection, schedule: Q01DX005 (ip), vehicle: saline): 100 % of control
T/C (dose: 200.0 mg/kg/injection, schedule: Q01DX005 (ip), vehicle: saline): 108 % of control

C[C@@H](N)[C@@H](O)c1ccccc1
T/C (dose: 30.0 mg/kg/injection, schedule: Q01DX Z (oral), vehicle: saline): 101 % of control
T/C (dose: 60.0 mg/kg/injection, schedule: Q01DX Z (oral), vehicle: saline): 101 % of control

CC(C)CCCCc1c[nH]c(=O)[nH]c1=O
T/C [14]: 107 % of control
T/C (dose: 100.0 mg/kg/injection, schedule: Q04DX003 (ip), vehicle: saline with Tween-80): 94 % of control
T/C [15]: 104 % of control
T/C (dose: 200.0 mg/kg/injection, schedule: Q04DX003 (ip), vehicle: saline with Tween-80): 97 % of control
T/C (dose: 400.0 mg/kg/injection, schedule: Q01DX009 (ip), vehicle: saline with Tween-80): 101 % of control
T/C (dose: 400.0 mg/kg/injection, schedule: Q04DX003 (ip), vehicle: saline with Tween-80): 92 % of control

CCCC(O)CC(C)O (stereo unspecified)
T/C [11]: 97 % of control
T/C [12]: 100 % of control
T/C [13]: 95 % of control

Cc1c(Cl)cccc1NC(=O)CCl
T/C [14]: 97 % of control
T/C [15]: 103 % of control

N=C(N)c1cccc(OCc2ccccc2)c1
T/C (dose: 100.0 mg/kg/injection, schedule: Q01DX001 (ip), vehicle: Klucel (hydroxypropylcellulose) (HPC)): 90 % of control
T/C (dose: 200.0 mg/kg/injection, schedule: Q01DX001 (ip), vehicle: Klucel (hydroxypropylcellulose) (HPC)): 94 % of control
T/C (dose: 400.0 mg/kg/injection, schedule: Q01DX001 (ip), vehicle: Klucel (hydroxypropylcellulose) (HPC)): 94 % of control

CCCCCCCCNc1cc2c3c(c1)CCCN3CCC2
T/C (dose: 0.78 mg/kg/injection, schedule: Q01DX009 (ip), vehicle: alcohol): 110 % of control
T/C (dose: 1.56 mg/kg/injection, schedule: Q01DX009 (ip), vehicle: alcohol): 102 % of control
T/C (dose: 1.56 mg/kg/injection, schedule: Q04DX003 (ip), vehicle: alcohol): 102 % of control
T/C (dose: 3.12 mg/kg/injection, schedule: Q01DX009 (ip), vehicle: alcohol): 113 % of control
T/C (dose: 3.12 mg/kg/injection, schedule: Q04DX003 (ip), vehicle: alcohol): 108 % of control
T/C (dose: 6.25 mg/kg/injection, schedule: Q04DX003 (ip), vehicle: alcohol): 97 % of control
T/C (dose: 25.0 mg/kg/injection, schedule: Q04DX003 (ip), vehicle: alcohol): 88 % of control

— PubChem BioAssay AID248 (DTP/NCI, 2004)
